Tests used:
KB1P organoids = test: MTT measurement of KB1P organoid survival upon increasing doses of docetaxel; type: cell-based; conditions: Mus musculus, docetaxel for 72 h
Experimental: Breast cancer organoids were derived from K14-Cre; Brca1fl/fl; p53fl/fl mouse mammary tumors (KB1P (Kester, L., et al. Clin Cancer Res, 2022.)) and from MMTV-PyMT (Duarte, A. A., et al. Nat Methods, 2018. 15(2): p. 134-140) mouse mammary tumors. Both lines were cultured in 50 μl drops of Cultrex PathClear Reduced Growth Factor Basement Membrane Extract Type 2 (BME, Amsbio, 3533-005-02). KB1P organoids were cultured in Advanced Dulbecco's modified Eagle's medium (adDMEM/F12; Thermo Fisher Scientific. Cat. No. 12634-010) containing Hepes (10 mmol/L; Thermo Fisher Scientific, Cat. No. 15630-056), Penicillin/streptomycin (10,000 U/ml; Thermo Fisher Scientific, Cat. No. 15140-122), B27 (2% Thermo Fisher Scientific, Cat. No. 17504-044), N-acetylcysteine (1.25 mM; Sigma-Aldrich, Cat. No. A9165) and fibroblast growth factor (FGF, 12 ng/ml; Invitrogen, Cat. No. PHG0261). MMTV-PyMT organoids were cultured in DMEM/F12 GlutaMAX (Gibco, Cat. No 10565018) supplemented with 10 mmol/L Hepes (Gibco, Cat. No 15630106), Penicillin/streptomycin (10,000 U/ml; Thermo Fisher Scientific, Cat. No. 15140-122), B27 (2% Thermo Fisher Scientific, Cat. No. 17504-044) and fibroblast growth factor (FGF, 12 ng/ml; Invitrogen, Cat. No. PHG0261). […]
Following co-culture, medium was removed, and cultures were washed in PBS to remove T cells. […] Plates were read with a 565 nm wavelength.

mouse splenic T cells = test: MTT assessment of mouse splenic T cell survival following chemotherapy treatment in vitro; type: cell-based; conditions: 10 nmol/L, 72 h
Experimental: (§1) About 100,000 T cells were seeded per well in a 96-well plate and treated with
(§2) increasing doses of docetaxel, paclitaxel, or carboplatin for 72 h. Next, T cells were incubated with Thiazolyl Blue Tetrazolium Bromide (0.5 mg/ml, Sigma Aldrich, Cat. No. 298-93-1) for 3 hr in the dark at 37 degrees Celsius. Subsequently, T cells were incubated for 16 h in the dark in a lysis buffer (40% dimerhylofrmamide, 0.55 mol/L sodium dodecyl sulfate, 2% acetic acid, 8.4 mmol/L HCl in MilliQ water). Plates were read with a 565 nm wavelength.

[1] = system: mouse T cells isolated from the spleen; test: T cell immunofluorescence staining of tubulin and F-actin; type: cell-based; conditions: 10 nmol/L, 72 h
Experimental: Mouse T cells isolated from the spleen and treated with a vehicle control or with docetaxel (10 nmol/L for 72 h) were seeded on glass coverslips pre-coated with poly-D-lysine (Thermo Fisher Cat. No. A3890401) and with αCD3 (eBioscience, Cat. No. 56-0033-80) for 15 min. Next, for immunofluorescence staining of tubulin, cells were extracted for 1 min with pre-warmed (37° C.) extraction buffer composed of MRB80 (80 mmol/L K-PIPES pH 6.8, 4 mmol/L MgCl2, 1 mmol/L EGTA) supplemented with 0.35% Triton X-100 and 0.2% glutaraldehyde, followed by fixation using pre-warmed (37° C.) 4% paraformaldehyde (PFA) in PBS for 10 min. Cells were washed with PBS and permeabilized with 0.2% Triton X-100 in PBS for 5 min. […]
For fluorescence intensity quantifications, samples were imaged on a spinning disk confocal setup consisting of an inverted research microscope Nikon Eclipse Ti-E (Nikon) equipped with the perfect focus system (Nikon), Plan Apo VC 100×N.A. 1.40 oil objective (Nikon), spinning disk Yokogawa CSU-X1-A1 with 405-491-561-642 quad-band mirror (Yokogawa). […]
All images were processed using ImageJ. For quantification of fluorescence intensity, sum projections were made for each z-stack using ImageJ. Next, the raw integrated density of a square box around individual cells of interest per image, as well as an empty region in the field of view, were calculated using ImageJ. […]

Jurkat T cells = test: MTT assessment of Jurkat T cell survival; type: cell-based, human; conditions: 5 nmol/L, 72 h
Experimental: Preparation of Jurkat T cells: Jurkat T cells were cultured in Roswell Park Memorial Institute (RPMI) 1640 Medium (Thermo Fisher Scientific, Cat. No. 21875034) containing FBS (10%, Thermo Fisher Scientific, Cat. No. A4766801), Penicillin/streptomycin (10,000 U/ml; Thermo Fisher Scientific, Cat. No. 15140-122), and Ultraglutamine (2 mmol/L, Lonza, Cat. No. BE17-605E/U1). Jurkat T cells were kept in 20% O2, 5% CO2 and at 37 degrees Celsius. Jurkat T cells were treated for 72 h with PBS or with docetaxel (docetaxel 5 nmol/L). Subsequently, Jurkat T cells were collected and washed 3 times in PBS to remove residual chemotherapy.
as §1, §2

CC(=O)O[C@@]12CO[C@@H]1C[C@H](O)[C@@]1(C)C(=O)[C@H](O)C3=C(C)[C@@H](OC(=O)[C@H](O)[C@@H](NC(=O)OC(C)(C)C)c4ccccc4)C[C@@](O)([C@@H](OC(=O)c4ccccc4)[C@H]21)C3(C)C [docetaxel]
IC50 (KB1P organoids): 90.5 nM
killing of T cells (MTT) (mouse splenic T cells): did not induce significant killing of T cells
microtubule density [1]: increased microtubule density
Jurkat T cells survival (MTT) (Jurkat T cells): did not significantly reduce Jurkat T cells survival
